Tests used:
Type in all cases: in vivo
Abcd1−/Abcd2−/− mice [1] = test: Treadmill test; conditions: four months of treatment starting at 12 months of age, belt speed 30 cm/sec, slope 20°
Method: (§1) Treadmill apparatus consisted of a variable speed belt varying in terms of speed and slope. An electrified grid was located to the rear of the belt on which footshocks (0.2 mA) were administered whenever the mice fell off the belt. The treadmill apparatus (Panlab, Barcelona, Spain) consisted of a belt (50 cm long and 20 cm wide) varying in terms of speed (5 to 150 cm/s) and slope (0-25°) enclosed in a plexiglass chamber. The latency to falling off the belt (time of shocks in seconds) and the number of received shocks were measured. The mice were placed on the top of the already moving belt facing away from the electrified grid and in the direction opposite to the movement of the belt. Thus, to avoid the footshocks, the mice had to locomote forward.
The mice were evaluated in five trials in a single-day session. In the first trial, the belt speed was set at 20 cm/s and the inclination at 50. […] When the mice were subjected to consecutive trials at increasing speeds up to 20 cm/sec and a 20° slope, no differences were detected from one session to another between the WT and Abcd1^−/Abcd2^−/− mice. However, when the belt speed was increased up to 30 cm/sec and the slope was 20°, differences were detected between the Abcd1^−/Abcd2^−/− mice and the controls because this task requires greater coordination. […]

Abcd1−/Abcd2−/− mice [2] = test: Horizontal bar cross test; conditions: four months of treatment starting at 12 months of age
Method: The bar cross test was carried out using a wooden bar of 100 cm in length and 2 cm in width (diameter). This bar is just wide enough for mice to stand on with their hind feet hanging over the edge such that any slight lateral misstep will result in a slip. […] The mice were put on one end of the bar and expected to cross to the other end. To eliminate the novelty of the task as a source of slips, all animals were given four trials on the bar the day before and at the beginning of the testing session. In an experimental session, the number of hind limb lateral slips and falls from the bar was counted on four consecutive trials. If an animal fell, it was placed back on the bar at the point at which it fell and was allowed to complete the task. The bar was cleaned with ethanol after each animal.

Abcd1−/Abcd2−/− mice [3] = test: Locomotor testing overall (treadmill and bar cross), disease progression in X-ALD mice; conditions: four months of treatment
Method: as §1, with “Thus, to avoid the footshocks, the mice had to locomote forward.” left out
The mice were evaluated in five trials in a single-day session. […] When the mice were subjected to consecutive trials at increasing speeds up to 20 cm/sec and a 20° slope, no differences were detected from one session to another between the WT and Abcd1^−/Abcd2^−/− mice. However, when the belt speed was increased up to 30 cm/sec and the slope was 20°, differences were detected between the Abcd1^−/Abcd2^−/− mice and the controls because this task requires greater coordination. […]
The bar cross test was carried out using a wooden bar of 100 cm in length and 2 cm in width (diameter). […] In an experimental session, the number of hind limb lateral slips and falls from the bar was counted on four consecutive trials. […]

| SMILES | ratio between the time of shocks and the number of shocks (locomotor deficit index) (Abcd1−/Abcd2−/− mice [1]) | number of slips (Abcd1−/Abcd2−/− mice [2]) | time necessary to cross the bar (Abcd1−/Abcd2−/− mice [2]) | progression of the disease in X-ALD mice (Abcd1−/Abcd2−/− mice [3]) |
| --- | --- | --- | --- | --- |
| CCCCCCCCc1ccc(CCC(N)(CO)CO)cc1 [Fingolimod] | indistinguishable from the WT ratio | normalized | normalized | arrested the progression of the disease |
| CCc1cc(/C(C)=N/OCc2ccc(C3CCCCC3)c(C(F)(F)F)c2)ccc1CN1CC(C(=O)O)C1 [Siponimod] | indistinguishable from the WT ratio | normalized | normalized | arrested the progression of the disease |
